Measured values published in patent US7368434B2, “Compounds useful for the inhibition of ALDH” (The Endowment for Research in Human Biology, Inc., priority 2002, dated 2008).
Read-outs that look alike come from different tables or passages of the source.

Experiments:
[1] = system: rats; details: cited from earlier work
[2] = system: ethanol-preferring Syrian golden hamsters; details: cited from earlier work
[3] = system: 5-HT metabolism in rat liver slices; test: 5-HT metabolism catalyzed by rat liver slices; format: cell-based
Excerpt: (§1) The effects of daidzin on monoamine metabolism were studied in hamster and rat liver and brain using tissue slices using 5-HT as the substrate. The effects of ethanol drinking on 5-HT metabolism in hamster liver and brain were examined. Freshly removed tissues were cut into small pieces (about 1 mm cubes) with a tissue-slicer, suspended in ice-cold phosphate buffered saline (PBS) (0.1 g/ml), and forced through a mesh 40 stainless steel screen mounted on a Millipore Swinnex Filter Holder. The minced tissues were allowed to sediment on ice before PBS was removed using a Pasteur pipette. The tissue slices were washed 5 more times each with 10 volumes of ice-cold PBS. After the final wash, tissues were suspended in 1 volume of PBS and dispensed using a micro-pipette with tips of i.d.=2 mm. 5-HT metabolism catalyzed by the tissue slices was assayed in a 1 ml assay medium containing PBS, 1 μM 5-HT, 100:1 tissue slices, and specified concentrations of daidzin or ethanol. Reactions were initiated by the addition of tissues and allowed to proceed for 30 min at 37° C. in a shaking water bath. Reactions were terminated by addition of 0.1 ml ice-cold 1 M HClO4, and 10 mM EDTA. Samples were kept on ice for 30 min and centrifuged to obtained clear supernatants. Contents of 5-HT, 5-HIAL, 5-HTOL and 5-HIAA in the supernatants were analyzed by HPLC as described before (Rooke et al. (2000) J. Med. Chem. 43:4169).

[4] = system: Syrian golden hamsters (Meso cricetus auratus); test: Oral potency: compound mixed in chow, two-bottle free-choice ethanol intake; format: in vivo; details: oral in chow, similar manner and equivalent dose range
Method: The oral potency of hexzein (7-O-ω-carboxypentyldaidzein) in reducing ethanol intake in Syrian golden hamsters (Meso cricetus auratus) was examined under a two-bottle free-choice protocol. Hexzein was mixed with Purina rodent meal (5755M) at 0 mg: 1 g (control), 2 mg: 1 g, 4 mg: 1 g, and 5 mg: 1 g ratios and the mixtures were pressed into 1×1×0.5 inch pellets. Food pellets, ethanol solution and water were provided continuously throughout the study and their intake were measured every day at 5 pm. Hexzein given in this manner did reduce ethanol intake. Ethanol intake in hamsters on 2 mg/g, 4 mg/g, and 5 mg/g hexzein-Chow were reduced by 18.3±3.8%, 47.8±7.4% and 56.5±5.4%, respectively.

[5] = system: 5-HT metabolism in brain slices; test: 5-HT metabolism in rat brain slices; format: cell-based
Excerpt: as §1, with “Samples were kept on ice for 30 min and centrifuged to obtained clear supernatants.” left out

[6] = system: isolated rat liver mitochondria; details: cited from earlier work
[7] = system: 5-HT metabolism in brain slices; test: 5-HT metabolism in hamster brain slices; format: cell-based
Excerpt: as §1, with “Samples were kept on ice for 30 min and centrifuged to obtained clear supernatants.” left out

[8] = system: isolated hamster liver mitochondria; details: cited from earlier work
[9] = system: golden hamsters; test: Ethanol drinking experiments, two-bottle choice; format: in vivo; details: 0.07 mmol/day/hamster for 5 consecutive days
Method: Effects of the newly synthesized analogs on hamster ethanol intake were determined according to the method described below. Animals were male adult golden hamsters (outbred, Lakeview Lak: LVG[SYR]), purchased from Charles River Laboratories, Wilmington, Mass. 01887 or Harlan Sprague Dawley, Inc., Indianapolis, Ind. 46229. Upon arrival, hamsters were housed in a room maintained at 23° C., 35-45% humidity, with a 12/12 hr light/dark cycle (light on 0600-1800 hr), ad libitum access to Purina Chow (5001) and a 15% v/v ethanol solution. After a week, each hamster was transferred to an individual stainless steel cage (26×18×17.5 cm). Two 50 ml drinking bottles, one containing water and the other a 15% ethanol solution, were provided continuously. The bottles were placed in holders equipped with tilted platforms which direct spillage to tubes placed outside of the cages. The positions of the two drinking bottles on each cage were altered daily to prevent development of positional preference. Fluid intake was measured at 0900 hr each day. Hamsters that drank significant (>8 ml/day) and consistent (daily variance <±20%) amounts of ethanol solution were selected for testing. To establish baseline ethanol and water intake, 1 ml sterile saline was administered daily to each hamster between 1500-1600 hr for 6 days (saline control period, Day 1 to Day 6). A daily dose of 0.07 mmol of test compound was then administered for 5 consecutive days (treatment period, Day 7 to Day 11). After the last dose, ethanol and water intake were monitored for another 6 days (post treatment period, Day 12 to Day 17). […] At an equivalent dose, daidzin suppressed ethanol intake by about 55% (Table 1).

[10] = system: 5-HT metabolism in hamster liver slices; test: 5-HT metabolism catalyzed by hamster liver slices; format: cell-based
Excerpt: as §1

[11] = Tissue distribution study, liver of hamsters on compound-Chow; format: in vivo, hamster; details: hamsters on compound-Chow
[12] = Urine [5-HTOL]/[5-HIAA] ratio after daidzin administration; format: in vivo; details: dose that would suppress hamster ethanol intake by about 50%

**Q.** Which “Ethanol intake (in words)” value [1] does the source give for Daidzin [Analog 42] here?
**A.** Its value is “selectively suppress ethanol intake”.

**Q.** What about the “Ethanol intake (in words)” value ([2]; administered orally) of the same substance?
**A.** The value was “does not affect hamster ethanol intake”.

**Q.** And the “Ethanol intake (in words)” value ([2]; ethanol-preferring Syrian golden hamsters)?
**A.** Its value is “selectively suppress ethanol intake”.

**Q.** And the 5-HT depletion [3]?
**A.** Its 5-HT depletion is “not 5-HT depletion”.

**Q.** What about the 5-HTOL formation [3] of the same substance?
**A.** Its 5-HTOL formation is “increases in the formation of 5-HTOL”.

**Q.** And the 5-HIAA formation ([3]; 1 μM 5-HT, 30 min at 37° C.)?
**A.** The 5-HIAA formation was “inhibited 5-HIAA formation”.

**Q.** And the “Effect on ethanol intake (in words)” value [4]?
**A.** The value was “failed to reduce ethanol intake”.

**Q.** What about the “Effect on 5-HT metabolism (in words)” value [5] of the same substance?
**A.** The value was “did not effect 5-HT metabolism”.

**Q.** What about the “Conversion of 5-HT and DA into 5-HIAA and DOPAC” value [6] of the same substance?
**A.** The value was “inhibits the conversion of monoamines”.

**Q.** What about the “Effect on 5-HT metabolism (in words)” value [7] of the same substance?
**A.** The value was “did not effect 5-HT metabolism”.

**Q.** What about the “Conversion of 5-HT and DA into 5-HIAA and DOPAC” value [8] of the same substance?
**A.** Its value is “inhibits the conversion of monoamines”.

**Q.** And the “EtOH intake suppression, %” value [9]?
**A.** The value was “about 55%”.

**Q.** And the 5-HT depletion [10]?
**A.** The 5-HT depletion was “not 5-HT depletion”.

**Q.** What about the 5-HTOL formation [10] of the same substance?
**A.** The 5-HTOL formation was “increases in the formation of 5-HTOL”.

**Q.** And the 5-HIAA formation ([10]; 1 μM 5-HT, 30 min at 37° C.)?
**A.** The 5-HIAA formation was “inhibited 5-HIAA formation”.

**Q.** What about the “Concentration found in the liver (in words)” value [11] of the same substance?
**A.** Its value is “no daidzin could be detected”.

**Q.** And the “urine [5-HTOL]/[5-HIAA] ratio” value [12]?
**A.** Its value is “increased urine [5-HTOL]/[5-HIAA] ratio”.
